Times observed data for one compound are collected here from patent US10168342B2, “Lipid probes and uses thereof” (THE SCRIPPS RESEARCH INSTITUTE, priority 2015, dated 2019).

Assay in all cases: isoTOP-ABPP mapping of AEA-DA-modified peptides in Neuro2a cells
Common to all, as to type: cell-based

Test [1] has as its target T1, AEA-DA-modified peptides in Neuro2a cells (Mus musculus, UniProt P20029).
T1 construct: endogenous in cells; host or cells: Neuro2a
Conditions: probe 100 μM, 12 replicates.

The target in test [2] is T2, AEA-DA-modified peptides in Neuro2a cells (Mus musculus, UniProt Q8VC28).
T2 construct: endogenous in cells; host or cells: Neuro2a
T2 sequence (Q8VC28 whole entry): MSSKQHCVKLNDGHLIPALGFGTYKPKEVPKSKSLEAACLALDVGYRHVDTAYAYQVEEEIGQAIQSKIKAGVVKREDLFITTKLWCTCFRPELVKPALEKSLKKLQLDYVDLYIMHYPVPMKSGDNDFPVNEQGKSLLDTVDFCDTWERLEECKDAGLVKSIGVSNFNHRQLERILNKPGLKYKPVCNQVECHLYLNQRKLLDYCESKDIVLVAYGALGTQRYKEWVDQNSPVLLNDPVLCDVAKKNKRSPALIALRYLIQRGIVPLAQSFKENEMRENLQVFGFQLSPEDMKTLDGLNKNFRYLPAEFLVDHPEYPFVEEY
The settings on record: AEA-DA-modified peptide AKR1C13 Q8VC28 48-69, SEQ ID NO 7; probe 100 μM, 12 replicates.

In test [3] the target is T3, AEA-DA-modified peptides in Neuro2a cells (Mus musculus, UniProt Q8CIV2).
T3 construct: endogenous in cells; host or cells: Neuro2a
T3 sequence (Q8CIV2 whole entry): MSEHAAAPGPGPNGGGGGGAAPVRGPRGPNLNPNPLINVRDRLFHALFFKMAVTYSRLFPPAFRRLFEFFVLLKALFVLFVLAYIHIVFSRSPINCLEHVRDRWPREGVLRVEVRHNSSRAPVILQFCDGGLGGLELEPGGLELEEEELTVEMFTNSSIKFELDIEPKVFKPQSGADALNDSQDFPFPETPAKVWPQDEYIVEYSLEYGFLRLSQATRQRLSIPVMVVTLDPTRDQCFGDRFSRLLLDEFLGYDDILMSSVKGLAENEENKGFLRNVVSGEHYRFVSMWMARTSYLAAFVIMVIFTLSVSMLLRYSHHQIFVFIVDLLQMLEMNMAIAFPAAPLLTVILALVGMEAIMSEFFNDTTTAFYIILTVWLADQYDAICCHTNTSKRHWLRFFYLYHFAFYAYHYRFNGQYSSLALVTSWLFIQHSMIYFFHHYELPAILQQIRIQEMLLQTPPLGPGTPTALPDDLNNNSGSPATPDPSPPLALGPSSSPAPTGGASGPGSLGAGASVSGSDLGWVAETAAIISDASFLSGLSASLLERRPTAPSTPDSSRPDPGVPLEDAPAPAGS
The settings on record: AEA-DA-modified peptide ORF61 Q8CIV2 245-263, SEQ ID NO 75; probe 100 μM, 12 replicates.

Test [4] addresses T4, AEA-DA-modified peptides in Neuro2a cells (Mus musculus, UniProt Q791V5).
T4 construct: endogenous in cells; host or cells: Neuro2a
The settings on record: AEA-DA-modified peptide MTCH2 Q791V5 91-112, SEQ ID NO 62; probe 100 μM, 12 replicates.

The target in test [5] is T5, AEA-DA-modified peptides in Neuro2a cells (Mus musculus, UniProt Q8CFE6).
T5 construct: endogenous in cells; host or cells: Neuro2a
T5 sequence (Q8CFE6 whole entry): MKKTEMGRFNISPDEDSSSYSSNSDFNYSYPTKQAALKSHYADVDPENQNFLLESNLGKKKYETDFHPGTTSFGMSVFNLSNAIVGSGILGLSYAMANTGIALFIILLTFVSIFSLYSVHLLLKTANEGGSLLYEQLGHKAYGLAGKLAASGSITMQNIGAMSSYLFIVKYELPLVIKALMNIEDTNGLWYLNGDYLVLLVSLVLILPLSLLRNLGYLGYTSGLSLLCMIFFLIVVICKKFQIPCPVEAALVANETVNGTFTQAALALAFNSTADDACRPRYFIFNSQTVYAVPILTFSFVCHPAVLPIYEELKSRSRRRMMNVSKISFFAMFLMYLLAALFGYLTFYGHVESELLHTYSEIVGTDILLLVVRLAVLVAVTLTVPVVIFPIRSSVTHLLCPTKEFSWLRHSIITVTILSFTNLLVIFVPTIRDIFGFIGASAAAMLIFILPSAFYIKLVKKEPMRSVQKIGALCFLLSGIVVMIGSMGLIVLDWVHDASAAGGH
Conditions: AEA-DA-modified peptide SLC38A2 Q8CFE6 171-179, SEQ ID NO 105; probe 100 μM, 12 replicates.

The target of test [6] is T6, AEA-DA-modified peptides in Neuro2a cells (Mus musculus, UniProt P57776).
T6 construct: endogenous in cells; host or cells: Neuro2a
T6 sequence (P57776 whole entry): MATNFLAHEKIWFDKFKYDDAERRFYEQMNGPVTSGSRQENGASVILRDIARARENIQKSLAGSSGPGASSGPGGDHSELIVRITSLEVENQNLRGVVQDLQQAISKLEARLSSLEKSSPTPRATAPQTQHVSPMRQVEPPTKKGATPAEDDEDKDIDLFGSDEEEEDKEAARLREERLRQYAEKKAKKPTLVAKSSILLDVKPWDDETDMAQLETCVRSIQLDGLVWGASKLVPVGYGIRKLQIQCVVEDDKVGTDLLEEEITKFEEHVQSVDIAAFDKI
Conditions: AEA-DA-modified peptide EEF1D P57776 25-39, SEQ ID NO 35; probe 100 μM, 12 replicates.

Test [7] concerns the target T7, AEA-DA-modified peptides in Neuro2a cells (Mus musculus, UniProt P21619).
T7 construct: endogenous in cells; host or cells: Neuro2a
The settings on record: AEA-DA-modified peptide LMNB2 P21619 137-160, SEQ ID NO 57; probe 100 μM, 12 replicates.

The target of test [8] is T8, AEA-DA-modified peptides in Neuro2a cells (Mus musculus, UniProt P59325).
T8 construct: endogenous in cells; host or cells: Neuro2a
T8 sequence (P59325 whole entry): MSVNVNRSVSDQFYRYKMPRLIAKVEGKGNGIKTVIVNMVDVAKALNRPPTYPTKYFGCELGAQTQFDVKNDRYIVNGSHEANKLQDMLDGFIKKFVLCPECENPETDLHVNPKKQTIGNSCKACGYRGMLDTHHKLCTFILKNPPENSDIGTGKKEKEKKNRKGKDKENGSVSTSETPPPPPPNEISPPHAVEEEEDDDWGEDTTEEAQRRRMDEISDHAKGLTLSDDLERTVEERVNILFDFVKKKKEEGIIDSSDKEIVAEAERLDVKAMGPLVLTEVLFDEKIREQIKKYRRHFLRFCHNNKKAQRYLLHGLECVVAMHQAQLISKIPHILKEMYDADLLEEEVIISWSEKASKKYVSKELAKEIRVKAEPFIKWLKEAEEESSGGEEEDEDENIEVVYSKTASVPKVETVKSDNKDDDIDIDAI
The settings on record: AEA-DA-modified peptide EIF5 P59325 272-287, SEQ ID NO 36; probe 100 μM, 12 replicates.

Test [9] has as its target T9, AEA-DA-modified peptides in Neuro2a cells (Mus musculus, UniProt Q91WD5).
T9 construct: endogenous in cells; host or cells: Neuro2a
Conditions: AEA-DA-modified peptide NDUFS2 Q91WD5 36-57, SEQ ID NO 67; probe 100 μM, 12 replicates.

For test [10], the target named is T10, AEA-DA-modified peptides in Neuro2a cells (Mus musculus, UniProt Q91WC3).
T10 construct: endogenous in cells; host or cells: Neuro2a
T10 sequence (Q91WC3 whole entry): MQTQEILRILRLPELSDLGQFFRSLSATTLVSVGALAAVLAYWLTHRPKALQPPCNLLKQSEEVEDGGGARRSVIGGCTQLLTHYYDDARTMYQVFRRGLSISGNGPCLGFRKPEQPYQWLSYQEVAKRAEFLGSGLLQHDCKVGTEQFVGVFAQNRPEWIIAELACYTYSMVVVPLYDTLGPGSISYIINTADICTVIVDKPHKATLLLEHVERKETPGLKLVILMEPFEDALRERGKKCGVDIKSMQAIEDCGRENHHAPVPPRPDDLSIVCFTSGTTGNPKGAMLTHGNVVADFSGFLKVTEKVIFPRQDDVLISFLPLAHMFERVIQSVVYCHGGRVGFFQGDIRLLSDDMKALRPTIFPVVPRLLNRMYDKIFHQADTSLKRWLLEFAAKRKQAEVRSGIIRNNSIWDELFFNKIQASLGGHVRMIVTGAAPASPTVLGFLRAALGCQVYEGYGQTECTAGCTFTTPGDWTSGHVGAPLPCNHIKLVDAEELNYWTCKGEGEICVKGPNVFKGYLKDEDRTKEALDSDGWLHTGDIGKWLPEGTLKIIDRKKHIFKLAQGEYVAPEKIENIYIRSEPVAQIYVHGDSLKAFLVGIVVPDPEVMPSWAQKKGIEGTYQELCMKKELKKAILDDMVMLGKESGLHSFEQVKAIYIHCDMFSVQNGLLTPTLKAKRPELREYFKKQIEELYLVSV
The settings on record: AEA-DA-modified peptide ACSL6 Q91WC3 408-420, SEQ ID NO 3; probe 100 μM, 12 replicates.

Test [11] addresses T11, AEA-DA-modified peptides in Neuro2a cells (Mus musculus, UniProt Q9CZS1).
T11 construct: endogenous in cells; host or cells: Neuro2a
Conditions: AEA-DA-modified peptide ALDH1B1 Q9CZS1 119-147, SEQ ID NO 8; probe 100 μM, 12 replicates.

In test [12] the target is T12, AEA-DA-modified peptides in Neuro2a cells (Mus musculus, UniProt Q91V01).
T12 construct: endogenous in cells; host or cells: Neuro2a
T12 sequence (Q91V01 whole entry): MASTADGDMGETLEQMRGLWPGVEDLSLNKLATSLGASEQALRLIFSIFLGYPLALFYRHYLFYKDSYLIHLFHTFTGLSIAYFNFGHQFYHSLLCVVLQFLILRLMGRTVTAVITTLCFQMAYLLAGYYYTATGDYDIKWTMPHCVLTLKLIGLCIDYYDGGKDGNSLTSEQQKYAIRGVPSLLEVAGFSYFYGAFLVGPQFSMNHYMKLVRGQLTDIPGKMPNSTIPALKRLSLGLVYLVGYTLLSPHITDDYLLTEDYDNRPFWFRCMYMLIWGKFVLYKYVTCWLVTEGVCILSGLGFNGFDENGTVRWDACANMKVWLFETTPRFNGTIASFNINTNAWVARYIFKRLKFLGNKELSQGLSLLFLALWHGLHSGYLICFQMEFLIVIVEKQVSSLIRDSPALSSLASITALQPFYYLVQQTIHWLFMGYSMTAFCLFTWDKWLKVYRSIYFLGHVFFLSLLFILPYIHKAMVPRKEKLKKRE
The settings on record: AEA-DA-modified peptide LPCAT3 Q91V01 18-31, SEQ ID NO 58; probe 100 μM, 12 replicates.

T1 sequence (P20029 20-655): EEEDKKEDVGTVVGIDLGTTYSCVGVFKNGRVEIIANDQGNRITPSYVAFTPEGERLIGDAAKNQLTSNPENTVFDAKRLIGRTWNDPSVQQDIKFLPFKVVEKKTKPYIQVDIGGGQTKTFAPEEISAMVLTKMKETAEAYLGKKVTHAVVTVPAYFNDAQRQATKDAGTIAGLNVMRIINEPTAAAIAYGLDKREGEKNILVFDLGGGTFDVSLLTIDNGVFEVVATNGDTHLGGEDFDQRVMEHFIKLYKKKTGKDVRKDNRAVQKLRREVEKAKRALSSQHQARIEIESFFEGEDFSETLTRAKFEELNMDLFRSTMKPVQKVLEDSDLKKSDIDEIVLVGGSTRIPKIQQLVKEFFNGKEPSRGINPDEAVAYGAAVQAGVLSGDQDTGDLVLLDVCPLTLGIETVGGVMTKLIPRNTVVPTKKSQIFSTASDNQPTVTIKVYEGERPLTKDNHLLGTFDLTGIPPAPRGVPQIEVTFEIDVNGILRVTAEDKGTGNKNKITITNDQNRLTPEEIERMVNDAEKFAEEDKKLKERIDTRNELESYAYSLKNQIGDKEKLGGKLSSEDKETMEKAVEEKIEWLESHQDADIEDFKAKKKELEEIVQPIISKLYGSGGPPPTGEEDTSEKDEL
T4 sequence (Q791V5 whole entry): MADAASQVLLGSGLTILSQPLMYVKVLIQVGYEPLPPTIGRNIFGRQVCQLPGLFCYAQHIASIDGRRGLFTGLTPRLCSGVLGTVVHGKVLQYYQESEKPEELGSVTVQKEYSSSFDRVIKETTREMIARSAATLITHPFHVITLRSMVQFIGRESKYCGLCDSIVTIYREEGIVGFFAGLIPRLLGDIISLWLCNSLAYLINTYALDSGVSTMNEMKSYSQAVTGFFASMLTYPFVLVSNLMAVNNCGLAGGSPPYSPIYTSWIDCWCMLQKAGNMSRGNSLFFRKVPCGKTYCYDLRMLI
T11 sequence (Q9CZS1 20-519): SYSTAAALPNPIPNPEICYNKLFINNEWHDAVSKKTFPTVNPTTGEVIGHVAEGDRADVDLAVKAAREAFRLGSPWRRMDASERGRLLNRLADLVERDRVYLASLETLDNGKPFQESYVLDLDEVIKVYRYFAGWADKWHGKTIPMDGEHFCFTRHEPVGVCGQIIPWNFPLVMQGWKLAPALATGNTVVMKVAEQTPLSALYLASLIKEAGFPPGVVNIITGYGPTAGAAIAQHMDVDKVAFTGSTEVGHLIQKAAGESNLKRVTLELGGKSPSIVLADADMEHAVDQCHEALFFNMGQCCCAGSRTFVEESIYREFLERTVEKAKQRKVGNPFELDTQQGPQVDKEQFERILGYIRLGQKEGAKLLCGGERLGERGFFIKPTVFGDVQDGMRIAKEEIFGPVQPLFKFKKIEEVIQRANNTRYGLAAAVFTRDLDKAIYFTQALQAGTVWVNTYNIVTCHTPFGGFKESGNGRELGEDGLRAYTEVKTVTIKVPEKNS

As to `C#CCCCC1(CC/C=C\C/C=C\C/C=C\CCCC(=O)NCCO)N=N1` [AEA-DA, (5Z,8Z,11Z)-N-(2-hydroxyethyl)-14-(3-(pent-4-yn-1-yl)-3H-diazirin-3-yl)tetradeca-5,8,11-trienamide], the Times observed is 8 in test [1] (AEA-DA-modified peptide HSPA5 P20029 466-476, SEQ ID NO 52); 4 in test [1] (AEA-DA-modified peptide HSPA5 P20029 635-656, SEQ ID NO 53); 4 in test [2]; 4 in test [3]; 2 in test [4]; 4 in [5]. The Times observed worked out at 10 in test [6]; 5 in [7]; 12 in test [8]; 3 in test [9]; 6 in test [10]; 4 in test [11]. Moreover, the Times observed in [12] turned out to be 2.
